Earlier results, collected in patent publication US20190230969A1, “COMPOSITION OF PURIFIED SOLUBLE MANNANS FOR DIETARY SUPPLEMENTS AND METHODS OF USE THEREOF” (priority 2010, published 2019).

Assays:
[1] = system: patients; conditions: in vivo
[2] = system: normal and castrated rats; conditions: 10 mg/kg subcutaneously biweekly, 4 weeks

| SMILES | gastrointestinal disturbances (flatulence, abdominal distension, borborygmus, diarrhea) [1] | effect on BUN and testosterone levels [2] |
| --- | --- | --- |
| C[C@H]1O[C@H](O[C@H]2[C@H](O)[C@@H](O)[C@@H](O[C@H]3[C@H](O)[C@@H](O)C(O)O[C@@H]3CO)O[C@@H]2CO)[C@H](O)[C@@H](O)[C@@H]1N[C@H]1C=C(CO)[C@@H](O)[C@H](O)[C@H]1O (some centres unmarked) [acarbose] | High incidence of gastrointestinal disturbances |  |
| C[C@]12CC[C@H]3[C@@H](CCC4=CC(=O)CC[C@@]43C)[C@@H]1CC[C@@H]2O [testosterone] |  | increases |
